Test results as given in the SangsterLogP compilation.
One block for each compound: values may come before it.

Test: method code SF-AS, from PMID: 1608988
Conditions: pH 7.3

Structure (SMILES): CCOc1ccc(NC(=O)OCCN2CCOCC2)cc1
logD: 1.63

Structure (SMILES): CCCOc1ccccc1NC(=O)OCCN1CCOCC1
logD: 2.26

Structure (SMILES): CCCCCOc1ccccc1NC(=O)OCCN1CCOCC1
logD: 3.18

Structure (SMILES): CCCCCOc1ccc(NC(=O)OCCN2CCOCC2)cc1
logD: 3.41

Structure (SMILES): CCCOc1ccc(NC(=O)OCCN2CCOCC2)cc1
logD: 2.24

Structure (SMILES): CCCCCCOc1ccccc1NC(=O)OCCN1CCOCC1
logD: 3.68

Structure (SMILES): CCOc1ccccc1NC(=O)OCCN1CCOCC1
logD: 1.76

Structure (SMILES): CCCCOc1ccccc1NC(=O)OCCN1CCOCC1
logD: 2.73

Structure (SMILES): COc1ccccc1NC(=O)OCCN1CCOCC1
logD: 1.2

Structure (SMILES): COc1cccc(NC(=O)OCCN2CCOCC2)c1
logD: 1.64

Structure (SMILES): CCCCOc1ccc(NC(=O)OCCN2CCOCC2)cc1
logD: 2.8

Further lines, results first:

logD: 4.41
Structure (SMILES): CCCCCCCOc1ccc(NC(=O)OCCN2CCOCC2)cc1

logD: 3.96
Structure (SMILES): CCCCCCOc1ccc(NC(=O)OCCN2CCOCC2)cc1

logD: 3.58
Structure (SMILES): CCCCCOc1cccc(NC(=O)OCCN2CCOCC2)c1

logD: 3.99
Structure (SMILES): CCCCCCCOc1ccccc1NC(=O)OCCN1CCOCC1

logD: 2.5
Structure (SMILES): CCCOc1cccc(NC(=O)OCCN2CCOCC2)c1

logD: 3.08
Structure (SMILES): CCCCOc1cccc(NC(=O)OCCN2CCOCC2)c1

logD: 4.8
Structure (SMILES): CCCCCCCCOc1ccc(NC(=O)OCCN2CCOCC2)cc1

logD: 4.73
Structure (SMILES): CCCCCCCOc1cccc(NC(=O)OCCN2CCOCC2)c1

logD: 4.42
Structure (SMILES): CCCCCCCCOc1cccc(NC(=O)OCCN2CCOCC2)c1

logD: 4.19
Structure (SMILES): CCCCCCOc1cccc(NC(=O)OCCN2CCOCC2)c1

logD: 4.43
Structure (SMILES): CCCCCCCCOc1ccccc1NC(=O)OCCN1CCOCC1
